Reference: patent US12458700B2, “Amine-containing transfection reagents and methods for making and using same” (Life Technologies Corporation, priority 2010, dated 2025)

Tested on: CSNK2A1
Test: CSNK2A1 siRNA knockdown by qPCR in Hela, primary cortical neurons and primary hippocampal neurons
Type: cell-based, human, rat
Conditions: lipoplex with cholesterol 1:0.5, 30 nM siRNA, 24 h, FIG. 5
From the text: Some lipids of the present invention were formulated into lipid compositions, which also comprise cholesterol or DOPE, buffers and ethanol. Animal origin-free cholesterol was purchased from Sigma-Aldrich (St Louis, MO) and DOPE was purchased from Avanti Lipids (Alabaster, AL). Silencer® Select CSNK2A1 siRNA and Silencer® Select negative control siRNA (cat #4390824 siRNA id#s3637 and cat #4390843) having the antisense sequence […] (SEQ ID NO:2) and […] (SEQ ID NO:3), respectively, were resuspended with nuclease-free water to a stock concentration of 50 μM, which were further diluted to meet downstream experiments and is commercially available from Life Technologies (Carlsbad, CA).
For compounds 83 and 67, the dry powder lipids were re-suspended in ethanol at a final concentration of 1 mg/ml and either used as lipid alone (Compound 83) or combined with cholesterol in 1:0.5 ratio (Compound 67). The formulations tested were made as described in Table 3
Primary rat cortex neuronal cells were purchased from GIBCO (Cat. No. A10840) and maintained in Neurobasal™ medium (cat #21103-049) supplemented with 2% B-27® Serum-free (50× cat #17504-044) and 0.5 mM GlutaMAX™ (cat #35050-061). […]

SMILES: CCCCCCCCCCCCNC(=O)CNCCCN(CCCCNCCCN(CC(=O)NCCCCCCCCCCCC)CC(=O)NCCCCCCCCCCCC)CC(=O)NCCCCCCCCCCCC [Compound 67]
- relative percent of CSNK2A1 remaining activity normalized to negative control: do possess activity in vitro
